Experimental data: ChEMBL document CHEMBL1156586, “Structure-activity relationship studies of permeability modulating peptide AT-1002” (Bioorg Med Chem Lett, 2008)
*1 amine or outer side, *2 acyl side, *3 side chain or, on linkers, in order; H or OH if unused. Where a SMILES comes first, the peptide text is derived from it. Bridges are numbered along the chain shown (N, C = ends). Roman numbers before positions name the chains, in order. [ ]: non-standard residue; d: D form. X1 = O=C([C@H](/C=C/c1ccccc1)N[*:1])[*:2]; Leu(4,5-dehydro) = C=C(C)C[C@H](N)C(=O)O; Phe(4-CN) = N#Cc1ccc(C[C@H](N)C(=O)O)cc1; Phe(3-Me) = Cc1cccc(C[C@H](N)C(=O)O)c1; Met(O2) = CS(=O)(=O)CC[C@H](N)C(=O)O; Ala(cPr) = N[C@@H](CC1CC1)C(=O)O; 2Pal = N[C@@H](Cc1ccccn1)C(=O)O; Met(O) = CS(=O)CC[C@H](N)C(=O)O; 2Thi = N[C@@H](Cc1cccs1)C(=O)O; Cha = N[C@@H](CC1CCCCC1)C(=O)O; Tle = CC(C)(C)[C@H](N)C(=O)O; Dab = NCC[C@H](N)C(=O)O; Nva = CCC[C@H](N)C(=O)O; Abu = CC[C@H](N)C(=O)O

Key:
Caco-2 [1] = assay: Permeability from apical to basolateral side of human Caco-2 cell monolayers assessed as increase in lucifer yellow flux at 7.0 mM relative to untreated control; type: ADME, cell-based; details: caco-2, 7000 µM
Caco-2 [2] = assay: Effect on integrity in human Caco-2 cell monolayers assessed as transepithelial resistance by epithelial voltohmmeter relative to control; type: ADME, cell-based; design: concentration or dose not given beside the values

SMILES | fold change (FC) (Caco-2 [1]) | Activity (Caco-2 [2])
C=CC[C@@H](NC(=O)[C@@H](N)Cc1ccccc1)C(=O)N[C@H](C(=O)NCC(=O)N[C@@H](CCCNC(=N)N)C(=O)N[C@@H](CC(C)C)C(=O)O)[C@@H](C)CC | 0.8 | 130%
CC[C@H](C)[C@H](NC(=O)[C@H](CC1CCCCC1)NC(=O)[C@@H](N)Cc1ccccc1)C(=O)NCC(=O)N[C@@H](CCCNC(=N)N)C(=O)N[C@@H](CC(C)C)C(=O)O (H-F[Cha]IGRL-OH) | 2.1 | 68%
CC[C@H](C)[C@H](NC(=O)[C@H](Cc1ccc(C#N)cc1)NC(=O)[C@@H](N)Cc1ccccc1)C(=O)NCC(=O)N[C@@H](CCCNC(=N)N)C(=O)N[C@@H](CC(C)C)C(=O)O (H-F[Phe(4-CN)]IGRL-OH) | 0.3 | 118%
CC[C@H](C)[C@H](NC(=O)[C@@H](NC(=O)[C@@H](N)Cc1ccccc1)C(C)C)C(=O)NCC(=O)N[C@@H](CCCNC(=N)N)C(=O)N[C@@H](CC(C)C)C(=O)O (H-FVIGRL-OH) | 5.7 | 50%
CC[C@H](C)[C@H](NC(=O)[C@H](CSSC[C@H](NC(=O)[C@@H](N)Cc1ccccc1)C(=O)N[C@H](C(=O)NCC(=O)N[C@@H](CCCNC(=N)N)C(=O)N[C@@H](CC(C)C)C(=O)O)[C@@H](C)CC)NC(=O)[C@@H](N)Cc1ccccc1)C(=O)NCC(=O)N[C@@H](CCCNC(=N)N)C(=O)N[C@@H](CC(C)C)C(=O)O (I: H-FCIGRL-OH / II: H-FCIGRL-OH; disulfide I:2-II:2) | 0.7 | 137%
CC[C@H](C)[C@H](NC(=O)[C@H](Cc1cccs1)NC(=O)[C@@H](N)Cc1ccccc1)C(=O)NCC(=O)N[C@@H](CCCNC(=N)N)C(=O)N[C@@H](CC(C)C)C(=O)O (H-F[2Thi]IGRL-OH) | 1.4 | 119%
CC[C@H](C)[C@H](NC(=O)[C@@H](NC(=O)[C@@H](N)Cc1ccccc1)[C@@H](C)O)C(=O)NCC(=O)N[C@@H](CCCNC(=N)N)C(=O)N[C@@H](CC(C)C)C(=O)O (H-FTIGRL-OH) | 3.9 | 66%
CC[C@H](C)[C@H](NC(=O)[C@@H](NC(=O)[C@@H](N)Cc1ccccc1)C(C)(C)C)C(=O)NCC(=O)N[C@@H](CCCNC(=N)N)C(=O)N[C@@H](CC(C)C)C(=O)O (H-F[Tle]IGRL-OH) | 6.7 | 35%
C=C(C)C[C@H](NC(=O)[C@@H](N)Cc1ccccc1)C(=O)N[C@H](C(=O)NCC(=O)N[C@@H](CCCNC(=N)N)C(=O)N[C@@H](CC(C)C)C(=O)O)[C@@H](C)CC (H-F[Leu(4,5-dehydro)]IGRL-OH) | 1.9 | 115%
CC[C@H](C)[C@H](NC(=O)[C@H](CCCNC(=N)N)NC(=O)[C@@H](N)Cc1ccccc1)C(=O)NCC(=O)N[C@@H](CCCNC(=N)N)C(=O)N[C@@H](CC(C)C)C(=O)O (H-FRIGRL-OH) | 2.2 | 102%
CC[C@H](C)[C@H](NC(=O)[C@H](CS)NC(=O)[C@@H](N)Cc1ccccc1)C(=O)NCC(=O)O (H-FCIG-OH) | 2.2 | 103%
CC[C@H](C)[C@H](NC(=O)[C@H](/C=C/c1ccccc1)NC(=O)[C@@H](N)Cc1ccccc1)C(=O)NCC(=O)N[C@@H](CCCNC(=N)N)C(=O)N[C@@H](CC(C)C)C(=O)O (H-F[X1]IGRL-OH) | 1 | 113%
CC[C@H](C)[C@H](NC(=O)[C@H](Cc1cccc(C)c1)NC(=O)[C@@H](N)Cc1ccccc1)C(=O)NCC(=O)N[C@@H](CCCNC(=N)N)C(=O)N[C@@H](CC(C)C)C(=O)O (H-F[Phe(3-Me)]IGRL-OH) | 0.6 | 101%
C=CC[C@H](NC(=O)[C@@H](N)Cc1ccccc1)C(=O)N[C@H](C(=O)NCC(=O)N[C@@H](CCCNC(=N)N)C(=O)N[C@@H](CC(C)C)C(=O)O)[C@@H](C)CC | 103 | 20%
CC[C@H](C)[C@H](NC(=O)[C@H](CS)NC(=O)[C@@H](N)Cc1ccccc1)C(=O)NCC(=O)N[C@@H](CCCNC(=N)N)C(=O)O (H-FCIGR-OH) | 31 | 21%
CC[C@H](C)[C@H](N)C(=O)NCC(=O)N[C@@H](CCCNC(=N)N)C(=O)N[C@@H](CC(C)C)C(=O)O (H-IGRL-OH) | 0.9 | 70%
CC[C@H](C)[C@H](NC(=O)[C@H](CC1CC1)NC(=O)[C@@H](N)Cc1ccccc1)C(=O)NCC(=O)N[C@@H](CCCNC(=N)N)C(=O)N[C@@H](CC(C)C)C(=O)O (H-F[Ala(cPr)]IGRL-OH) | 0.6 | 111%
CC[C@H](C)[C@H](NC(=O)[C@H](Cc1ccc(O)cc1)NC(=O)[C@@H](N)Cc1ccccc1)C(=O)NCC(=O)N[C@@H](CCCNC(=N)N)C(=O)N[C@@H](CC(C)C)C(=O)O (H-FYIGRL-OH) | 0.6 | 118%
CC[C@H](C)[C@H](NC(=O)[C@H](Cc1ccccn1)NC(=O)[C@@H](N)Cc1ccccc1)C(=O)NCC(=O)N[C@@H](CCCNC(=N)N)C(=O)N[C@@H](CC(C)C)C(=O)O (H-F[2Pal]IGRL-OH) | 0.5 | 148%
CC[C@H](C)[C@H](NC(=O)[C@H](Cc1cnc[nH]1)NC(=O)[C@@H](N)Cc1ccccc1)C(=O)NCC(=O)N[C@@H](CCCNC(=N)N)C(=O)N[C@@H](CC(C)C)C(=O)O (H-FHIGRL-OH) | 1 | 102%

More lines, now with the values ahead:

fold change (FC) (Caco-2 [1]) | Activity (Caco-2 [2]) | SMILES
52 | 11% | CC[C@H](C)[C@H](NC(=O)[C@H](CS)NC(=O)[C@@H](N)Cc1ccccc1)C(=O)NCC(=O)N[C@@H](CCCNC(=N)N)C(=O)N[C@@H](CC(C)C)C(=O)O (H-FCIGRL-OH)
1.1 | 96% | CC[C@H](NC(=O)[C@@H](N)Cc1ccccc1)C(=O)N[C@H](C(=O)NCC(=O)N[C@@H](CCCNC(=N)N)C(=O)N[C@@H](CC(C)C)C(=O)O)[C@@H](C)CC (H-F[Abu]IGRL-OH)
2.1 | 94% | CC[C@H](C)[C@H](NC(=O)[C@H](CO)NC(=O)[C@@H](N)Cc1ccccc1)C(=O)NCC(=O)N[C@@H](CCCNC(=N)N)C(=O)N[C@@H](CC(C)C)C(=O)O (H-FSIGRL-OH)
1.6 | 98% | CCC[C@H](NC(=O)[C@@H](N)Cc1ccccc1)C(=O)N[C@H](C(=O)NCC(=O)N[C@@H](CCCNC(=N)N)C(=O)N[C@@H](CC(C)C)C(=O)O)[C@@H](C)CC (H-F[Nva]IGRL-OH)
0.4 | 110% | CC[C@H](C)[C@H](NC(=O)[C@H](CCCCN)NC(=O)[C@@H](N)Cc1ccccc1)C(=O)NCC(=O)N[C@@H](CCCNC(=N)N)C(=O)N[C@@H](CC(C)C)C(=O)O (H-FKIGRL-OH)
1.5 | 112% | CC[C@H](C)[C@H](NC(=O)[C@H](CCC(N)=O)NC(=O)[C@@H](N)Cc1ccccc1)C(=O)NCC(=O)N[C@@H](CCCNC(=N)N)C(=O)N[C@@H](CC(C)C)C(=O)O (H-FQIGRL-OH)
0.7 | 110% | CC[C@H](C)[C@H](NC(=O)[C@H](CCS(C)(=O)=O)NC(=O)[C@@H](N)Cc1ccccc1)C(=O)NCC(=O)N[C@@H](CCCNC(=N)N)C(=O)N[C@@H](CC(C)C)C(=O)O (H-F[Met(O2)]IGRL-OH)
2.1 | 94% | CC[C@H](C)[C@H](NC(=O)[C@H](CCN)NC(=O)[C@@H](N)Cc1ccccc1)C(=O)NCC(=O)N[C@@H](CCCNC(=N)N)C(=O)N[C@@H](CC(C)C)C(=O)O (H-F[Dab]IGRL-OH)
1.3 | 104% | CC[C@H](C)[C@H](NC(=O)[C@H](CCC(=O)O)NC(=O)[C@@H](N)Cc1ccccc1)C(=O)NCC(=O)N[C@@H](CCCNC(=N)N)C(=O)N[C@@H](CC(C)C)C(=O)O (H-FEIGRL-OH)
1.1 | 106% | CC[C@H](C)[C@H](NC(=O)[C@H](CC[S+](C)[O-])NC(=O)[C@@H](N)Cc1ccccc1)C(=O)NCC(=O)N[C@@H](CCCNC(=N)N)C(=O)N[C@@H](CC(C)C)C(=O)O (stereo partly specified) (H-F[Met(O)]IGRL-OH)
1.5 | 83% | CC[C@H](C)[C@H](NC(=O)[C@H](CC(N)=O)NC(=O)[C@@H](N)Cc1ccccc1)C(=O)NCC(=O)N[C@@H](CCCNC(=N)N)C(=O)N[C@@H](CC(C)C)C(=O)O (H-FNIGRL-OH)
0.7 | 148% | CC[C@H](C)[C@H](NC(=O)[C@H](CC(=O)O)NC(=O)[C@@H](N)Cc1ccccc1)C(=O)NCC(=O)N[C@@H](CCCNC(=N)N)C(=O)N[C@@H](CC(C)C)C(=O)O (H-FDIGRL-OH)
1 | 121% | CC[C@H](C)[C@H](NC(=O)[C@H](CC(C)C)NC(=O)[C@@H](N)Cc1ccccc1)C(=O)NCC(=O)N[C@@H](CCCNC(=N)N)C(=O)N[C@@H](CC(C)C)C(=O)O (H-FLIGRL-OH)
